Experiment [1] has as its system cisplatin-induced emesis. The experiment can be described thus: Cisplatin-induced emesis in dogs. The following applies: Canis lupus familiaris; 1 mg/kg IV; cisplatin 3.0 mg/kg IV; 5 hours; read-out: Antiemetic: % change in emetic episodes in dogs induced by cisplatin. In kind it is in vivo. As to the method:
A. Effect of Invention Compounds on Cisplatin-induced Emesis in Dogs
The procedure used to test compounds of the present invention for antiemetic properties is a modification of the method of Gylys et al., Res. Commun. Chem. Pathol. Pharm., 23, 61(1979).
Adult, mongrel unfasted dogs of both sexes are randomly assigned into treatment groups, with each treatment group consisting of four dogs. On the dosing day all dogs are given cisplatin, 3.0 mg/kg, intravenously. Sixty minutes later, the dogs in the control treatment group are given deionized water, 0.1 mL/kg intravenously and dogs receiving test compounds are given the test compound in solution (1 mg/kg, IV). All doses are administered as a solution by means of a syringe and needle, and each dog's emetic episodes are recorded for 5 hours after the administration of cisplatin.
^2 % change in emetic episodes in dogs at 1 mg/kg IV induced by […]

Experiment [2] concerns gastric emptying of test meal. Nature of the experiment: Gastric emptying of a test meal in fasted rats. To be noted: Rattus norvegicus, 1 h; for change in vivo at 10 mg/kg: 10 mg/kg IP; for change in vivo at 9 mg/kg: 9 mg/kg IP (printed 09). The format is in vivo. The method, then: B. Effect of Invention Compounds on Gastric Emptying of a Test Meal in Fasted Rats
The procedure used to test compounds of the present invention for gastric motility enhancing activity is that of Droppleman et al., J. Pharmacol. Methods, 4,227(1980).
Each animal is dosed intraperitoneally (9 or 10 mg/kg) with a test compound or control. After 30 minutes each animal is given 3 mL of a methylcellulose-based test meal formulation. Sixty minutes after administration of the test meal, each animal is sacrificed by cervical dislocation, and the stomach is removed and weighed. The stomach is cut open, rinsed and dried, and reweighed. This difference between the full and empty weights (amount of meal remaining in stomach) is subtracted from the weight of the original test meal to determine the meal amount emptied from the stomach during the test period.
^1 % change in gastric emptying of test meal in rats (dose, mg/kg IP)

In experiment [3] the test system is von Bezold-Jarisch reflex evoked by 5-HT (serotonin). The experiment can be described thus: Antagonism of the von Bezold-Jarisch reflex evoked by 5-HT in anaesthetized rats. In kind it is in vivo. The following applies: Rattus norvegicus; 0.0316 mg/kg IV in anesthetized rats; read-out: Antiserotonin: von Bezold-Jarisch reflex % change in serotonin-induced bradycardia. As to the method:
F. Antagonism of the von Bezold-Jarisch Reflex
The compounds are evaluated for antagonism of the von Bezold-Jarisch reflex evoked by 5-HT (serotonin) in anaesthetized rats according to the method described in European Patent Application 200-444 (Beecham Group).
Male rats (250-350 g) are anaesthetized with urethane (1.25 g/kg intraperitoneally), and blood pressure and heart rate are recorded as described by Fozard J. R. et al., J. Cardiovasc. Pharmacol. 2, 229-245 (1980). A submaximal dose of 5-HT (usually […]) is given repeatedly by the intravenous route and changes in heart rate quantified. Compounds are given intravenously and the inhibition of the 5-HT evoked response is measured. In addition, the concentration required to reduce the 5-HT evoked response to 50% of the control response (ED50) can be determined.
^3 Von BezoldJarisch reflex % change in serotonininduced bradycardia
at 0.0316 mg/kg IV in anesthesized rats.

The test system of experiment [4] is canine Purkinje fibers. Nature of the experiment: Cellular electrophysiologic effects in canine Purkinje fibers in vitro. To be noted: Canis lupus familiaris, 20 min, 10^-4 M, after 20 min exposure, read-out: increase in action potential duration at 90% repolarization (APD90). In kind it is cell-based, dog (canine). As to the method:
G. Measurement of Cellular Electrophysiologic Effects in Canine Purkinje Fibers in Vitro
Dogs (12-18 kg) were anesthetized with sodium pentobarbital (30 mg/kg IV). The heart of each dog was rapidly removed through a right lateral thoracotomy and placed in a chilled, oxygenated Tyrode's solution. Purkinje fibers from the right and left ventricles were excised and mounted in a Lucite chamber. The tissue was superfused at a rate of 10-15 mL/min with Tyrode's solution. The temperature of the superfused Tyrode's was maintained at 37° C. and gassed with 95% oxygen-5% carbon dioxide mixture.
The Purkinje fibers were stimulated (paced at cycle length of 400 to 1000 msec) with a silver bipolar wire electrode placed on the surface of the tissue. Transmembrane action potentials were recorded with a glass capillary microelectrodes filled with 3M KCl. […] The measurements derived from the action potential were Vmax (upstroke velocity), APD50 (action potential duration at 50% repolarization), and APD90 (action potential duration at 90% repolarization) as previously described (Bigger and Mandel, 1970; Wu and Hoffman, 1987). […] Measurements of the action potential parameters were recorded after 20 min of test drug exposure. […] Changes in the action potential measurements produced by the test compound were analyzed for statistical significance using a paired-t test. […]

The subject of experiment [5] is exploratory light/dark behavior. Nature of the experiment: Anxiolytic test, exploratory light/dark (mice). To be noted: 10 mg/kg IP, significant increase as compared with the controls (30%). The format is in vivo. As to the method: Exploratory Light/Dark (mice)
This method has been described by Young and Johnson (1988) and is a modification of the procedure described by Costall and Naylor (1988). A two compartment light-dark activity monitoring device (Digiscan Model RXYZCM16, Omnitech Electronics Inc., Columbus, Ohio) is used. A 90W light source located 30 cm above the box provides light to the lit portion of the apparatus. Behavioral testing is conducted in a sound-attenuated, darkened room illuminated with red light (25W red bulb) only.
Each animal (mouse) receives a dose or doses of either the test, reference, or control article. The animal is placed at the center of the illuminated area and the behavioral activity tallied over a 5 minute period by use of the Digiscan analyzer. Behavioral variables recorded included: the time spent in the lit and dark areas, the number of rearings in the lit and dark areas, the number of locomotor activity counts in the lit and dark areas, the number of transitions between the lit and dark and lit areas, the latency to make the first transition from the lit area to the dark area, rearing time in the lit and dark areas, locomotor time in the lit and dark areas, and resting time in the lit and dark areas. Appropriate statistical analyses for each measure are performed. […]

Experimental findings from patent US5244907A, “Carbocyclic carboxylic acid amides and esters of azabicyclic compounds as gastric prokinetic, antiemetic, anxiolytic and antiarrhythmic agents” (A. H. Robins Company, Incorporated, priority 1992, dated 1993) are described below.

`COc1cc(N)c(Cl)cc1C(=O)NCC12CCCN(CC1)C2` (stereo not drawn) [Example 1, 4-Amino-N-(1-azabicyclo[3.2.1]oct-5ylmethyl)-5-chloro-2-methoxybenzamide]: the change in vivo at 1 mg/kg in experiment [1] is -76%. The change in vivo at 10 mg/kg in experiment [2] was found to be 47%.
For the compound `CNc1cc(OC)c(C(=O)NCC23CCCN(CC2)C3)cc1Cl` (stereo not drawn) [Example 2], the change in vivo at 1 mg/kg in experiment [1] was -63%. In addition, the change in vivo at 9 mg/kg in experiment [2] turned out to be 62%.
Regarding `COCCOc1cc(N)c(Cl)cc1C(=O)NCC12CCCN(CC1)C2` (stereo not drawn) [Example 3], the change in vivo at 1 mg/kg in experiment [1] is -51%. Also, the change in vivo at 10 mg/kg in experiment [2] turned out to be 31%. Besides, in experiment [3], the change in vivo at 0.0316 mg/kg is -74%.
With `COc1cc(N)c(Cl)cc1C(=O)NCC12CCCN(CCC1)C2` [Example 4, 4-Amino-N-(1-azabicyclo[3.3.1]non-5-ylmethyl)-5-chloro-2-methoxybenzamide], in experiment [1], the change in vivo at 1 mg/kg was -62%. For the same compound, the change in vivo at 10 mg/kg in experiment [2] is 31%. Further, the change in vivo at 0.0316 mg/kg in experiment [3] was -32%.
On to `CNc1cc(OC)c(C(=O)NCC23CCCN(CCC2)C3)cc1Cl` [Example 5, N-(1-Azabicyclo[3.3.1]non-5-ylmethyl)-5-chloro-2-methoxy-4-(methylamino)benzamide], for which the change in vivo at 1 mg/kg in experiment [1] was -71%. The change in vivo at 9 mg/kg in experiment [2] came out at 58%.
With `COCCOc1cc(N)c(Cl)cc1C(=O)NCC12CCCN(CCC1)C2` [Example 6, 4-Amino-N-(1-azabicyclo[3.3.1]non-5-ylmethyl)-5-chloro-2-(2-methoxyethoxy)benzamide], the change in vivo at 0.0316 mg/kg in experiment [3] is -30%.
For the compound `Cn1cc(C(=O)NCC23CCCN(CCC2)C3)c2ccccc21` [Example 8], the change in vivo at 1 mg/kg in experiment [1] is -49%.
`CS(=O)(=O)Nc1ccc(C(=O)NCC23CCCN(CCC2)C3)cc1` [Example 9, N-(1-Azabicyclo[3.3.1]non-5-ylmethyl)-4-[(methylsulfonyl)amino]benzamide]: the activation at 100 µM in experiment [4] was found to be 8.5%.
For the compound `COc1cc(N)c(Cl)cc1C(=O)OCC12CCCN(CC1)C2` (stereo not drawn) [Example 10, 4-Amino-5-chloro-2-methoxybenzoic acid 1-azabicyclo[3.2.1]oct-5-ylmethyl ester], in experiment [1], the change in vivo at 1 mg/kg was -82%. Further, the change in vivo at 10 mg/kg in experiment [2] was determined as 47%. In experiment [3], the change in vivo at 0.0316 mg/kg is -82%.
In the case of `O=C(OCC12CCCN(CC1)C2)c1c[nH]c2ccccc12` (stereo not drawn) [Example 11, 1H-Indole-3-carboxylic acid 1-azabicyclo[3.2.1]oct-5-ylmethyl ester], the change in vivo at 1 mg/kg in experiment [1] is -85%. Moreover, the change in vivo at 0.0316 mg/kg in experiment [3] is -86%.
With `Cn1cc(C(=O)OCC23CCCN(CC2)C3)c2ccccc21` (stereo not drawn) [Example 12, 1-Methyl-1H-indole-3-carboxylic acid 1-azabicyclo[3.2.1]oct-5-ylmethyl ester], the change in vivo at 0.0316 mg/kg in experiment [3] was -81%. Moreover, in experiment [5], the “time spent in the lit area” value came out at 58%.
Consider `COc1cc(N)c(Cl)cc1C(=O)OCC12CCCN(CCC1)C2` [Example 13, 4-Amino-5-chloro-2-methoxybenzoic acid 1-azabicyclo[3.3.1]non-5-ylmethyl ester], for which the change in vivo at 1 mg/kg in experiment [1] was -50%. Besides, the change in vivo at 9 mg/kg in experiment [2] was determined as 41%. The change in vivo at 0.0316 mg/kg in experiment [3] is -23%.
`O=C(OCC12CCCN(CCC1)C2)c1c[nH]c2ccccc12` [Example 14, 1H-Indole-3-carboxylic acid 1-azabicyclo[3.3.1]non-5-ylmethyl ester]: the change in vivo at 9 mg/kg in experiment [2] turned out to be 10%. Also, the change in vivo at 0.0316 mg/kg in experiment [3] was -0.3%.
Regarding `Cn1nc(C(=O)OCC23CCCN(CC2)C3)c2ccccc21` (stereo not drawn) [Example 15, 1-Methyl-1H-indazole-3-carboxylic acid 1-azabicyclo[3.2.1]oct-5-ylmethyl ester], the change in vivo at 1 mg/kg in experiment [1] was -93%. Also, the change in vivo at 10 mg/kg in experiment [2] amounted to 31%. For the same compound, the change in vivo at 0.0316 mg/kg in experiment [3] was -72%.
